Results from US8889677B2, “Substituted triazoles useful as mGlu5 receptor modulators” (Boehringer Ingellheim International GmbH, priority 2012, dated 2014).

Molecular target: T1, human recombinant mGluR5 (Homo sapiens, UniProt P41594)
T1 construct: expressed in transfected cells; host or cells: HEK 293 cell line cultured with tetracycline, hygromycin and geneticin; tetracycline removed 3-7 days before the assay
Assay: positive modulation of mGluR5, calcium based FLIPR assay in HEK 293 cells
Conditions: HEK 293 cell line expressing human recombinant mGluR5; EC50 of the modulation of the glutamate response (glutamate approx. 5% basal stimulation); peak height of Ca release fluorescence signal
Method: The positive modulation of mGluR5 is measured in a HEK 293 cell line expressing human recombinant mGluR5 and is detected with calcium based FLIPR assay. The cells are cultured with DMEM supplemented with 10% FCS, 2 μg/mL tetracycline, 100 μg/mL hygromycin and 500 μg/mL gneticin. The cell culture media is exchanged for tetracycline-free cell culture media 3-7 days before the assay. One day before the assay the cell culture medium is exchanged to DMEM without glutamine and phenol red and supplemented with 10% FCS, 100 μg/mL hygromycin and 500 μg/mL geneticin. On the assay day, the medium of the subconfluent cultures is removed and the cells are detached by addition of 2.5 ml EDTA (0.02%) per 175 cm2 culture flask for 1 minute. The cells are resuspend in Ringer solution (140 mM NaCl, 5 mM KCl, 2.5 mM CaCl2, 1.5 mM MgCl2, 5 mM Glucose, 10 mM Hepes; adjusted to pH 7.4 with NaOH), pooled and Ringer solution added to adjust the volume to 50 mL. The cell suspension is centrifuged for […] at 1500 U/min (425 g). The supernatant is removed and the cells washed a second time with 50 ml fresh Ringer solution and centrifuged again as before. The supernatant is again removed and the pellet resuspended in Ringer solution to 1,000,000 cells/ml (1×10^6 cells/mL). The cells are plated onto BD BioCoat Poly-D-Lysine 384 well plates (20.000 cells/well; 20 μl/well). The lid covered plates are then incubated until use at 37° C./10% CO2. For dye loading, 20 μl of Calcium-4 assay kit solution (prepared according to the manufacturer's description in Ringer solution) are added to the cells and the plates are incubated for 80 min 37° C. and then 10 min at room temperature.
Controls, Compound Dilution and Assay Execution:
Each assay plate contained wells with “high” and “low” controls:
Low controls 1% DMSO/ringer solution+basal glutamate activation (defined as 100% CTL).
High controls 10 μM CDPPB+basal glutamate activation (defined as 200% CTL).
Test compounds are dissolved and diluted in DMSO to 100-fold the desired concentrations. In a second step, the compounds are diluted in Ringer solution such that the compounds are 4-fold more concentrated than the desired final assay concentration. The final DMSO concentration was 1%.
20 μl of each compound solution are then transferred to the assay plate and the Ca2+ kinetic is measured to determine any intrinsic compound activity. After 5 min incubation in the FLIPR device, the second stimulation with 20 μl of glutamate in Ringer solution (glutamate concentration adjusted to approximately 5% basal stimulation of the maximal possible glutamate effect) is added and the kinetic Ca2+ response of the wells was measured for the modulation effect.
The peak height of the Ca release related fluorescence signal (9-66) is used for the EC50. The EC50 of the modulation is calculated over a nonlinear regression with GraphPad Prism (Table 1).

T1 sequence (P41594 21-1212): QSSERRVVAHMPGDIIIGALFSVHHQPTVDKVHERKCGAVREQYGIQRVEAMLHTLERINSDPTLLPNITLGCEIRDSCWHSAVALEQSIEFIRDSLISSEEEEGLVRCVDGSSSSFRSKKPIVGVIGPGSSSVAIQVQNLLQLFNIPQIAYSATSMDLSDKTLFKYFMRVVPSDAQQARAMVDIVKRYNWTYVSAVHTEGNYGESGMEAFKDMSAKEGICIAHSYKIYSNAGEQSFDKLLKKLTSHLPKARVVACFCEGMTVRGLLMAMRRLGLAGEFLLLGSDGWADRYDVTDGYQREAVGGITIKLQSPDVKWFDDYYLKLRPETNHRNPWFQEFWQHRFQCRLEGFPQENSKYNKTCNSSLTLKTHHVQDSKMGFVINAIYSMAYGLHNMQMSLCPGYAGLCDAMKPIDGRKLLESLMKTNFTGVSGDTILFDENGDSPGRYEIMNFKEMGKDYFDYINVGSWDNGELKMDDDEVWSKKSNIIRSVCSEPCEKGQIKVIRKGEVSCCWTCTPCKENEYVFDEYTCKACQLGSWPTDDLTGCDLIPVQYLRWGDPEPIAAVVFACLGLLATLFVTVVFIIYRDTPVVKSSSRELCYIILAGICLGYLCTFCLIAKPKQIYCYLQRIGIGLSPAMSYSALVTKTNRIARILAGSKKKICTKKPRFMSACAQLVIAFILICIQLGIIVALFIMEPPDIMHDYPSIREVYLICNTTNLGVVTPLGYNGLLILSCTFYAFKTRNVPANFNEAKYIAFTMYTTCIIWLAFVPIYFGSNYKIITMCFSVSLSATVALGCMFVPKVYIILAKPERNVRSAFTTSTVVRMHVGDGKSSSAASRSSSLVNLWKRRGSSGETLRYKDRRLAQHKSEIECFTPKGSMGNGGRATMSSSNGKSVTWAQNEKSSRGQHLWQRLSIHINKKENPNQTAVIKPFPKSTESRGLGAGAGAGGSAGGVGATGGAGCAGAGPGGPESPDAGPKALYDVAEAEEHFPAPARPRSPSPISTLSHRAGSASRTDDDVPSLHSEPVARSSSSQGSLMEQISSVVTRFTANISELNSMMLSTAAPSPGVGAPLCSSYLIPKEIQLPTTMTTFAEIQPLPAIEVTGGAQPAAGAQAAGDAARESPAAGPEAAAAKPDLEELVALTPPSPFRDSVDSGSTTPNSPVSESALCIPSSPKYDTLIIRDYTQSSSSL

Structure (SMILES) | EC50 [nM]
O=C(Cn1nc(-c2ccc(F)cc2)nc1C1CCCC1)N1CCN(c2ncccn2)CC1 [Example 07.04.046.] | 586
O=C(Cn1nc(-c2ccc(F)cc2)nc1C1CCCC1)N1CCN(c2ccccn2)CC1 [Example 07.04.047.] | 1380
Cc1ccnc(N2CCN(C(=O)Cn3nc(-c4ccc(F)cc4)nc3C3CCCC3)CC2)c1 [Example 07.04.048.] | 591
COc1cccc(-c2nc(-c3ccc(F)cc3)nn2CC(=O)N2CCN(c3ccccn3)CC2)c1 [Example 07.04.050.] | 459
COc1cccc(-c2nc(C3CCCCC3)n(CC(=O)N3CCN(c4ncccn4)CC3)n2)c1 [Example 07.04.051.] | 997
COc1cccc(-c2nc(C3CCCCC3)n(CC(=O)N3CCN(c4cc(C)ccn4)CC3)n2)c1 [Example 07.04.052.] | 898
COc1cccc(-c2nc(C3CCCCC3)n(CC(=O)N3CCN(c4ccccn4)CC3)n2)c1 [Example 07.04.053.] | 1150
Cc1ccnc(N2CCN(C(=O)Cn3nc(-c4ccccc4)nc3-c3ccc(F)c(C)c3)CC2)c1 [Example 07.04.075.] | 657
COc1cc(N2CCN(C(=O)Cn3nc(-c4ccc(F)cc4)nc3-c3ccc(F)c(OC)c3)CC2)ncn1 [Example 07.04.079.] | 1330
CCCc1nc(-c2ccc(F)c(C)c2)nn1CC(=O)N1CCN(c2cc(OC)ncn2)CC1 [Example 07.04.080.] | 771
CCCc1nc(-c2ccc(F)c(C)c2)nn1CC(=O)N1CCN(c2cc(OC)ccn2)CC1 [Example 07.04.081.] | 353
CCCc1nc(-c2ccc(F)c(C)c2)nn1CC(=O)N1CCN(c2ccccn2)CC1 [Example 07.04.083.] | 497
CCCc1nc(-c2ccc(F)c(C)c2)nn1CC(=O)N1CCN(c2ncncn2)CC1 [Example 07.04.084.] | 1600
CCCc1nc(-c2ccc(F)c(C)c2)nn1CC(=O)N1CCN(c2ncccn2)CC1 [Example 07.04.085.] | 379
COc1cc(N2CCN(C(=O)Cn3nc(-c4ccc(F)c(C)c4)nc3C(C)C)CC2)ncn1 [Example 07.04.086.] | 1170
Cc1cc(-c2nc(C(C)C)n(CC(=O)N3CCN(c4ccccn4)CC3)n2)ccc1F [Example 07.04.087.] | 904
COc1ccnc(N2CCN(C(=O)Cn3nc(-c4ccc(F)c(C)c4)nc3C(C)C)CC2)c1 [Example 07.04.088.] | 896
Cc1ccnc(N2CCN(C(=O)Cn3nc(-c4ccc(F)c(C)c4)nc3C(C)C)CC2)c1 [Example 07.04.090.] | 1160
CCc1nc(-c2ccc(F)c(C)c2)nn1CC(=O)N1CCN(c2ccccn2)CC1 [Example 07.04.091.] | 1090
CCc1nc(-c2ccc(F)c(C)c2)nn1CC(=O)N1CCN(c2ncccn2)CC1 [Example 07.04.092.] | 654
CCc1nc(-c2ccc(F)c(C)c2)nn1CC(=O)N1CCN(c2cc(OC)ncn2)CC1 [Example 07.04.093.] | 1730
CCc1nc(-c2ccc(F)c(C)c2)nn1CC(=O)N1CCN(c2cc(OC)ccn2)CC1 [Example 07.04.094.] | 991
Cc1cc(-c2nc(C)n(CC(=O)N3CCN(c4ccccn4)CC3)n2)ccc1F [Example 07.04.095.] | 1660
COc1ccnc(N2CCN(C(=O)Cn3nc(-c4ccc(F)c(C)c4)nc3C)CC2)c1 [Example 07.04.096.] | 1520
Cc1cc(-c2nc(C)n(CC(=O)N3CCN(c4ncccn4)CC3)n2)ccc1F [Example 07.04.097.] | 1190
Cc1ccnc(N2CCN(C(=O)Cn3nc(-c4ccc(F)c(C)c4)nc3C)CC2)c1 [Example 07.04.098.] | 738

Further lines, results first:

EC50 [nM] | Structure (SMILES)
113 | COc1ccc(-c2nc(-c3ccc(F)cc3)nn2CC(=O)N2CCN(c3cc(C)ccn3)CC2)cc1 [Example 07.04.041.]
148 | COc1ccc(-c2nc(-c3ccc(F)cc3)nn2CC(=O)N2CCN(c3cc(OC)ncn3)CC2)cc1 [Example 07.04.042.]
334 | COc1ccc(-c2nc(-c3ccc(F)cc3)nn2CC(=O)N2CCN(c3cccnn3)CC2)cc1 [Example 07.04.043.]
88 | COc1ccc(-c2nc(-c3ccc(F)cc3)nn2CC(=O)N2CCN(c3ncc(Br)cn3)CC2)cc1 [Example 07.04.044.]
80 | COc1ccc(-c2nc(-c3ccc(F)cc3)nn2CC(=O)N2CCN(c3ncc(Cl)cn3)CC2)cc1 [Example 07.04.045.]
37 | COc1cccc(-c2nc(-c3ccc(F)cc3)n(CC(=O)N3CCN(c4ccccn4)CC3)n2)c1 [Example 07.04.049.]
100 | COc1ccc(-c2nc(-c3ccccc3)n(CC(=O)N3CCN(c4ccccn4)CC3)n2)cc1 [Example 07.04.054.]
101 | CCOc1ccnc(N2CCN(C(=O)Cn3nc(-c4ccc(OC)cc4)nc3-c3ccccc3)CC2)c1 [Example 07.04.055.]
64 | COc1ccc(-c2nc(-c3ccccc3)n(CC(=O)N3CCN(c4cc(OC)ccn4)CC3)n2)cc1 [Example 07.04.056.]
75 | Cc1cc(-c2nc(-c3ccccc3)n(CC(=O)N3CCN(c4ncc(Br)cn4)CC3)n2)ccc1Br [Example 07.04.057.]
25 | Cc1cc(-c2nc(-c3ccccc3)n(CC(=O)N3CCN(c4ncc(Cl)cn4)CC3)n2)ccc1F [Example 07.04.058.]
160 | Cc1cc(-c2nc(-c3ccccc3)n(CC(=O)N3CCN(c4cccnn4)CC3)n2)ccc1F [Example 07.04.059.]
55 | COc1cc(N2CCN(C(=O)Cn3nc(-c4ccc(F)c(C)c4)nc3-c3ccccc3)CC2)ncn1 [Example 07.04.060.]
67 | Cc1cc(-c2nc(-c3ccccc3)n(CC(=O)N3CCN(c4ccccn4)CC3)n2)ccc1F [Example 07.04.061.]
57 | Cc1ccnc(N2CCN(C(=O)Cn3nc(-c4ccc(F)c(C)c4)nc3-c3ccccc3)CC2)c1 [Example 07.04.062.]
61 | COc1ccnc(N2CCN(C(=O)Cn3nc(-c4ccc(F)c(C)c4)nc3-c3ccccc3)CC2)c1 [Example 07.04.063.]

EC50 [nM] | Structure (SMILES)
192 | COc1cnnc(N2CCN(C(=O)Cn3nc(-c4ccc(F)c(C)c4)nc3-c3ccccc3)CC2)c1 [Example 07.04.064.]
296 | COc1cc(N2CCN(C(=O)Cn3nc(-c4ccc(F)c(C)c4)nc3C3CCCCC3)CC2)ncn1 [Example 07.04.065.]
101 | Cc1cc(-c2nc(C3CCCCC3)n(CC(=O)N3CCN(c4ncccn4)CC3)n2)ccc1F [Example 07.04.066.]
207 | Cc1ccnc(N2CCN(C(=O)Cn3nc(-c4ccc(F)c(C)c4)nc3C3CCCCC3)CC2)c1 [Example 07.04.067.]
246 | COc1ccnc(N2CCN(C(=O)Cn3nc(-c4ccc(F)c(C)c4)nc3C3CCCCC3)CC2)c1 [Example 07.04.068.]
229 | Cc1cc(-c2nc(C3CCCCC3)n(CC(=O)N3CCN(c4ncc(Cl)cn4)CC3)n2)ccc1F [Example 07.04.069.]
318 | Cc1cc(-c2nc(C3CCCCC3)n(CC(=O)N3CCN(c4ncc(Br)cn4)CC3)n2)ccc1F [Example 07.04.070.]
347 | Cc1cc(-c2nc(C3CCCCC3)n(CC(=O)N3CCN(c4ccccn4)CC3)n2)ccc1F [Example 07.04.071.]
257 | Cc1cc(-c2nc(C3CCCCC3)n(CC(=O)N3CCN(c4cccnn4)CC3)n2)ccc1F [Example 07.04.072.]
87 | Cc1cc(-c2nc(-c3ccccc3)nn2CC(=O)N2CCN(c3ncccn3)CC2)ccc1F [Example 07.04.073.]
325 | COc1cc(N2CCN(C(=O)Cn3nc(-c4ccccc4)nc3-c3ccc(F)c(C)c3)CC2)ncn1 [Example 07.04.074.]
220 | Cc1cc(-c2nc(-c3ccccc3)nn2CC(=O)N2CCN(c3ccccn3)CC2)ccc1F [Example 07.04.076.]
244 | COc1cc(-c2nc(-c3ccc(F)cc3)nn2CC(=O)N2CCN(c3ncccn3)CC2)ccc1F [Example 07.04.077.]
306 | CCCc1nc(-c2ccc(F)c(C)c2)nn1CC(=O)N1CCN(c2cc(C)ccn2)CC1 [Example 07.04.082.]
340 | Cc1cc(-c2nc(C(C)C)n(CC(=O)N3CCN(c4ncccn4)CC3)n2)ccc1F [Example 07.04.089.]
